Reference: ChEMBL document CHEMBL5724914, “Linking interpersonal differences in gut microbiota composition and drug biotransformation activity” (2024)

Legend:
[1] = (§1) The drug is tested on Z-030 corresponding to mouse gut metagenome with ENA study accession number: PRJEB37062 and ENA sample accession number: ERS12561829 for biotransformation under anaerobic condition. The drug concentrations were measured over 9 timepoints collected between 0 and 24 hours of incubation by liquid-chromatography-coupled mass spectrometry (LC–MS); details: 2 µM
[2] = as §1, with “Z-029” for “Z-030”, “rat” for “mouse”, “ERS12561828” for “ERS12561829”; details: 2 µM
[3] = as §1, with “Z-024” for “Z-030”, “pig” for “mouse”, “ERS12561823” for “ERS12561829”; details: 2 µM
[4] = as §1, with “Z-012” for “Z-030”, “to” for “to mouse gut”, “ERS12561812” for “ERS12561829”; details: 2 µM
[5] = as §1, with “Z-007” for “Z-030”, “rat” for “mouse”, “ERS12561807” for “ERS12561829”; details: 2 µM
[6] = as §1, with “Z-005” for “Z-030”, “to” for “to mouse gut”, “ERS12561805” for “ERS12561829”; details: 2 µM
[7] = as §1, with “Z-001” for “Z-030”, “ERS12561801” for “ERS12561829”; details: 2 µM
[8] = as §1, with “WLS-090” for “Z-030”, “human” for “mouse”, “ERS12561753” for “ERS12561829”; details: 2 µM
[9] = as §1, with “WLS-082” for “Z-030”, “human” for “mouse”, “ERS12561751” for “ERS12561829”; details: 2 µM
[10] = as §1, with “WLS-077” for “Z-030”, “human” for “mouse”, “ERS12561750” for “ERS12561829”; details: 2 µM
[11] = human gut metagenome, 24 h, 2 µM
[12] = human gut metagenome, 24 h, 2 µM; remark: listed apart in the source
[13] = human gut metagenome, 24 h, 2 µM; remark: listed apart in the source
[14] = human gut metagenome, 24 h, 2 µM; remark: listed apart in the source
[15] = human gut metagenome, 24 h, 2 µM; remark: listed apart in the source
[16] = human gut metagenome, 24 h, 2 µM; remark: listed apart in the source
[17] = human gut metagenome, 24 h, 2 µM; remark: listed apart in the source
[18] = human gut metagenome, 24 h, 2 µM; remark: listed apart in the source
[19] = human gut metagenome, 24 h, 2 µM; remark: listed apart in the source
[20] = human gut metagenome, 24 h, 2 µM; remark: listed apart in the source
Further: call rule not given here.

SMILES	Bacterial Biotransformation [1]	Bacterial Biotransformation [2]	Bacterial Biotransformation [3]	Bacterial Biotransformation [4]	Bacterial Biotransformation [5]	Bacterial Biotransformation [6]	Bacterial Biotransformation [7]	Bacterial Biotransformation [8]	Bacterial Biotransformation [9]	Bacterial Biotransformation [10]	Bacterial Biotransformation [11]	Bacterial Biotransformation [12]	Bacterial Biotransformation [13]	Bacterial Biotransformation [14]	Bacterial Biotransformation [15]	Bacterial Biotransformation [16]	Bacterial Biotransformation [17]	Bacterial Biotransformation [18]	Bacterial Biotransformation [19]	Bacterial Biotransformation [20]
CN1CCOC(c2ccccc2)c2ccccc2C1 (stereo not given) [NEFOPAM]	Compound NOT metabolized	Compound NOT metabolized	Compound NOT metabolized	Compound NOT metabolized	Compound NOT metabolized	Compound NOT metabolized	Compound NOT metabolized	Compound metabolized	Compound NOT metabolized	Compound NOT metabolized	Compound NOT metabolized	Compound NOT metabolized	Compound NOT metabolized	Compound metabolized	Compound metabolized	Compound NOT metabolized	Compound NOT metabolized	Compound NOT metabolized	Compound metabolized	Compound metabolized
CCN1CCCC1CNC(=O)c1cc(S(N)(=O)=O)ccc1OC (stereo not given) [SULPIRIDE]	Compound NOT metabolized	Compound NOT metabolized	Compound NOT metabolized	Compound NOT metabolized	Compound NOT metabolized	Compound NOT metabolized	Compound metabolized	Compound metabolized	Compound NOT metabolized	Compound metabolized	Compound NOT metabolized	Compound NOT metabolized	Compound NOT metabolized	Compound metabolized	Compound NOT metabolized	Compound NOT metabolized	Compound metabolized	Compound NOT metabolized	Compound metabolized	Compound metabolized
Cc1nc(-c2ccc(OCC(C)C)c(C#N)c2)sc1C(=O)O [FEBUXOSTAT]	Compound NOT metabolized	Compound NOT metabolized	Compound metabolized	Compound NOT metabolized	Compound NOT metabolized	Compound metabolized	Compound NOT metabolized	Compound metabolized	Compound metabolized	Compound metabolized	Compound metabolized	Compound metabolized	Compound NOT metabolized	Compound metabolized	Compound metabolized	Compound metabolized	Compound metabolized	Compound NOT metabolized	Compound metabolized	Compound metabolized
COC(=O)Nc1nc2ccc(C(=O)c3ccccc3)cc2[nH]1 [MEBENDAZOLE]	Compound NOT metabolized	Compound metabolized	Compound metabolized	Compound metabolized	Compound metabolized	Compound metabolized	Compound metabolized	Compound metabolized	Compound metabolized	Compound metabolized	Compound metabolized	Compound metabolized	Compound metabolized	Compound metabolized	Compound metabolized	Compound metabolized	Compound metabolized	Compound NOT metabolized	Compound metabolized	Compound metabolized
CC(C)(C(=O)O)c1ccc(C(O)CCCN2CCC(C(O)(c3ccccc3)c3ccccc3)CC2)cc1 (stereo not given) [FEXOFENADINE]	Compound NOT metabolized	Compound NOT metabolized	Compound metabolized	Compound NOT metabolized	Compound NOT metabolized	Compound NOT metabolized	Compound NOT metabolized	Compound NOT metabolized	Compound NOT metabolized	Compound NOT metabolized	Compound NOT metabolized	Compound NOT metabolized	Compound NOT metabolized	Compound NOT metabolized	Compound NOT metabolized	Compound NOT metabolized	Compound NOT metabolized	Compound NOT metabolized	Compound NOT metabolized	Compound NOT metabolized
COc1ccc(CCN(C)CCCC(C#N)(c2ccc(OC)c(OC)c2)C(C)C)cc1OC (stereo not given)	Compound NOT metabolized	Compound NOT metabolized	Compound metabolized	Compound metabolized	Compound NOT metabolized	Compound metabolized	Compound NOT metabolized	Compound metabolized	Compound metabolized	Compound NOT metabolized	Compound NOT metabolized	Compound metabolized	Compound NOT metabolized	Compound metabolized	Compound metabolized	Compound NOT metabolized	Compound metabolized	Compound NOT metabolized	Compound metabolized	Compound metabolized
COc1ccc2c(c1OC)C(=O)O[C@@H]2[C@H]1c2c(cc3c(c2OC)OCO3)CCN1C [NOSCAPINE]	Compound NOT metabolized	Compound NOT metabolized	Compound metabolized	Compound NOT metabolized	Compound NOT metabolized	Compound metabolized	Compound metabolized	Compound metabolized	Compound NOT metabolized	Compound metabolized	Compound NOT metabolized	Compound metabolized	Compound metabolized	Compound metabolized	Compound NOT metabolized	Compound NOT metabolized	Compound NOT metabolized	Compound NOT metabolized	Compound metabolized	Compound NOT metabolized
COC(=O)[C@H]1[C@H]2C[C@@H]3c4[nH]c5cc(OC)ccc5c4CCN3C[C@H]2C[C@@H](OC(=O)c2cc(OC)c(OC)c(OC)c2)[C@@H]1OC [RESERPINE]	Compound NOT metabolized	Compound NOT metabolized	Compound NOT metabolized	Compound NOT metabolized	Compound NOT metabolized	Compound NOT metabolized	Compound NOT metabolized	Compound metabolized	Compound metabolized	Compound NOT metabolized	Compound NOT metabolized	Compound metabolized	Compound NOT metabolized	–	–	Compound NOT metabolized	Compound metabolized	–	Compound metabolized	Compound metabolized
O=c1[nH]c2ccccc2n1CCCN1CCC(n2c(=O)[nH]c3cc(Cl)ccc32)CC1 [DOMPERIDONE]	Compound NOT metabolized	Compound NOT metabolized	Compound NOT metabolized	Compound NOT metabolized	Compound NOT metabolized	Compound NOT metabolized	Compound NOT metabolized	Compound NOT metabolized	Compound NOT metabolized	Compound NOT metabolized	Compound NOT metabolized	Compound NOT metabolized	Compound NOT metabolized	Compound NOT metabolized	Compound NOT metabolized	–	–	Compound NOT metabolized	Compound NOT metabolized	Compound NOT metabolized
